Data as given in publication PMC4030805 (Analytical Chemistry, 2014).

Target: biotinylated Bcl-xL immobilized on streptavidin magnetic beads (Homo sapiens, UniProt Q07817)
Experiment: AMMP target-binding assay with in vitro translated peptides
Details: concentration taken from the HA tag competition assay (Figure 3c)

biotinylated Bcl-xL immobilized on streptavidin magnetic beads, sequence (Q07817 1-209 limits assumed): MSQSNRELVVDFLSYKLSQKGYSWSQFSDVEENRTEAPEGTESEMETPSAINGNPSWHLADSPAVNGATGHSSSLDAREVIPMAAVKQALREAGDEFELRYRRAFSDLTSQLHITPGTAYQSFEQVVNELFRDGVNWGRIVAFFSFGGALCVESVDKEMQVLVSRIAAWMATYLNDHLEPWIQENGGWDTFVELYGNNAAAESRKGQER

H-MIETITIYKYKKAADHFSMSMGSGSGSYPYDVPDYA-NH2 [Pep1]
peptide concentration giving robust signal over background: 100 pM
